Results: paper PMC9519446, “Discovery of an Orally Active Benzoxaborole Prodrug Effective in the Treatment of Chagas Disease in Non-human Primates” (Nature microbiology, 2022)

What was measured:
[1] = system: T. cruzi (naturally acquired infection); assay: NHP treatment study: blood qPCR for T. cruzi DNA; type: in vivo, rhesus macaques (Macaca mulatta)
Text: A total of 22 rhesus macaques that had been confirmed to be serologically- and PCR-positive for T. cruzi were utilized in these studies. Using 19 animals in the treatment group provided 85% power of detecting 100% efficacy. […] The remaining three animals on the study were maintained as untreated control animals and received food treats but were not dosed with AN15368.
Blood samples from each macaque were collected at various time points and processed for quantification of T. cruzi DNA by real-time qPCR. Between 8-10ml of whole blood collected in EDTA anticoagulant tubes was subjected to DNA extraction using the Omega E.Z.N.A. Blood DNA Maxi Kit (Omega Bio-Tek), following the manufacturer’s instructions for up to 10 ml whole blood and using a total of 650 μl of elution buffer. Each round of extractions included a negative (no-template) control comprised of 10 ml PBS. The concentration of DNA in the eluted solution was quantified after each extraction using an Epoch microplate spectrophotometer (BioTek).
DNA from each sample was then subjected to a series of two qPCR assays for detection of T. cruzi satellite DNA. The first qPCR used the cruzi 1, 2 primer set and cruzi 3 TaqMan probe as previously described, [54], using BioRad iTaq Universal Probes Supermix (Bio-Rad). […] We selected FAM and VIC channels for each read.

[2] = system: TcCBP KO T. cruzi intracellular amastigotes; assay: microbe, parasite or virus in culture; type: cell-based; conditions: Trypanosoma cruzi, read-out: TcCBP KO IC50
Method: The in vitro anti-T. cruzi amastiogote activity assay was performed and optimized based on the protocol described previously. The change in tdTomato fluorescence intensity was determined as a measurement of growth over 72 hours of culture. For assaying drug effects on extracellular amastigotes, trypomastigotes were collected from infected Vero cell cultures and converted in acidic media as previously described. Amastigotes (50,000/well) were incubated with 2-fold serial dilutions of compounds for 48 hours. The ATP production was used as an indication of growth in this case, and was measured by ATPlite Luminescence ATP Detection Assay System (PerkinElmer). Both fluorescence and luminescence were read using a BioTek Synergy Hybrid Multi-Mode reader equipped with the software Gene5 v 2.0 (BioTek). The dose-response curve was generated by […] analysis with GraphPad Prism v9.4.0 (GraphPad Software).
The CBPs knockout was produced using ribonucleoprotein (RNP) complexes as previously described. Briefly, Brazil tdTomato strain epimastigotes were electroporated with RNP complexes containing SaCas9 and an sgRNA targeting CBP gene TcBrA4_0048170, plus a repair template containing stop codons in all three reading frames and the M13 sequence for use as a PCR anchor. The sgRNA targeted the ‘[…]” sequence. After 2 days of recovery, single-cell clones were derived by depositing epimastigotes into a 96-well plate at a density of 0.5 cell/well by using a MoFlo Astrios EQ cell sorter (Beckman Coulter). DNA isolation was performed for clones, and primer pair of 5’-[…]-3’ and 5’- […] -3’ was used for amplifying the wild type allele, while primer pair of M13-F: 5’- […] -3’ and 5’- […] -3’ was used for amplifying the mutant allele.

For `Cc1c(C(=O)N[C@H](C(=O)OCC2CCOCC2)C(C)C)ccc2c1B(O)OC2` [AN15368], the “parasite DNA in blood (in words)” value ([1]; 30 mg/kg/day oral 60 days, all time points after end of treatment) was “negative”, the efficacy / cure ([1]; naturally infected NHPs, 30 mg/kg/day 60 days) was 100% and the IC50 [2] was 2500 nM.
